Test results published in patent publication US20010053797A1 (priority 1998, published 2001).
Entries after “also recorded” stand apart in the source; their conditions may differ.

Key:
[1] = tested on: murine cortical cell cultures (neurons), NMDA receptor; test: NMDA neurotoxicity in murine cortical cell cultures, medium LDH; type: cell-based, Swiss Webster mice; conditions: compound added with low micromolar NMDA, 20-25 h
Description: Cultures were incubated in 5% CO2 at 37° C.
Experiments were conducted at 13-15 days in vitro.

[2] = tested on: cortical neurons and glia; test: Chemical hypoxia (azide) and glucose deprivation in cortical cell cultures, medium LDH; type: cell-based, Swiss Webster mice; conditions: 3 mM azide 30 min with compound; LDH 21-25 h later
Description: Primary cultures containing both cortical neurons and glia were prepared from gravid Swiss Webster mice as previously described. (Regan , R. F. and Choi, D. W., The effect of NMDA, AMPA/kainate, and calcium channel antagonists on traumatic cortical neuronal injury in culture, Brain Res, 633: 236-242, 1994). Plating medium consisted of Eagle's minimal essential medium (MEM), 5% equine serum, 5% fetal bovine serum, 2 mM glutamine, and 23 mM glucose. Cultures were incubated in 5% CO2 at 37° C. Two-thirds of the culture medium was exchanged twice weekly with MEM containing 10% equine serum, 2 mM glutamine, and 23 mM glucose. Glial cell division was inhibited at 4-7 days in vitro with 10^−5 M cytosine arabinoside.
Chemical hypoxia was induced with 3 mM azide, which unlike cyanide is not volatile and has little effect on copper-zinc and manganese superoxide dismutases at low millimolar concentrations. (Misra, H. P. and Fridovich, I., Inhibition of superoxide dismutases by azide, Arch Biochem Biophys 189: 317-322, 1978). Experiments were conducted at 13-16 days in vitro in a glucose-free buffer containing 116 mM NaCl, 5.4 mM KCl, 1.8 mM CaCl2, 1 mM NaH2PO4, 26.2 mM NaHCO3, 0.8 mM MgSO4, and amino acids (MEM amino acids, Sigma Chemical Co., St. Louis, Mo., U.S.A.). After incubation for 30-90 min at 37° C. in 5% CO2, cultures were washed into MEM containing 10 mM glucose and were returned to the incubator.
Cell death was estimated 21-25 h after azide exposure by inspection under phase-contrast microscopy, and was quantified by assaying lactate dehydrogenase (LDH) activity in the medium, as previously described. (Regan, R. F. and Panter, S. S., Traumatic neuronal injury in cortical cell culture is attenuated by 21-aminosteroids, Brain Res, 682: 144-150, 1995). Medium LDH in this culture system is an accurate marker of neuronal death that correlates well with cell counts. (Koh, J. Y. and Choi, D. W., Vulnerability of cultured cortical neurons to damage by excitotoxins: Differential susceptibility of neurons containing NADPH-diaphorase, J Neurosci 8: 2153-2163, 1988). […] (Koh, J. Y. and Choi, D. W., 1988). The LDH activity in the medium of sister cultures exposed to sham wash alone was subtracted from all values to obtain the LDH signal associated specifically with neurotoxin exposure.
Data were analyzed by one-way analysis of variance. Differences between groups and a single mean were assessed with the Dunnett multiple comparisons test; when groups were compared to more than one mean, the Tukey-Kramer post hoc test was used.

[3] = tested on: cortical neurons and glia; conditions: 10-100 μM, 30 min in MEM without azide

OCCS [mercaptoethanol]
effect on NMDA neurotoxicity (neuronal death, medium LDH) [1]: markedly enhanced
effect on NMDA neurotoxicity (neuronal death, medium LDH) ([1]; listed as Mercaptoethanol): increased NMDA neurotoxicity to a degree comparable to that of glutathione
effect on azide neurotoxicity in glucose-free buffer (neuronal death) [2]: potentiate; also recorded: concentration-toxicity profile that was similar to GSH
toxicity of compound alone [3]: nontoxic
